# Where two headings read alike, the source gives them in different places.
# How the values were obtained:
# [1] = tested on: platelets
# Procedure: Platelets collected in PAS/Plasma (65% PAS III/35% Plasma) were pooled and split into three 285 mL units for the study. Amotosalen (S-59) was added to a concentration of 150 μM, and the units were illuminated one time (˜3.6 J/cm^2 total dose), two times (˜7.2 J/cm^2 total dose), or three times (˜10.8 J/cm^2 total dose) with the narrow band 340 nm LEDs or 365 nm LEDs using the device of Example 1, or with the INT-100 device.
# Additionally, various measures of platelet quality were evaluated by standard methodologies immediately after three times UVA illumination (˜10.8 J/cm^2), to identify potential differences among the light sources.
# [2] = tested on: platelets; assay: Platelet quality, platelets in 35% plasma/65% PAS III, amotosalen 30-110 μM, 340 nm device ~7.2 J/cm^2; type: cell-based
compound,measurement,setting,value
"Cc1oc2c(C)c3oc(=O)cc(C)c3cc2c1COCCN [S-59, 3-(2-aminoethoxymethyl)-2,5,9-trimethylfuro[3,2-g]chromen-7-one]",ATP,[1]; 340 nm,4.0 mmol/×10^8
same,Lysis,[1]; 340 nm,2.36%
same,pH (37° C.),[1]; 340 nm,6.61
same,ATP,[1]; 365 nm,4.8 mmol/×10^8
same,Lysis,[1]; 365 nm,1.72%
same,pH (37° C.),[1]; 365 nm,6.74
same,ATP,[1]; INT 100,4.1 mmol/×10^8
same,Lysis,[1]; INT 100,2.25%
same,pH (37° C.),[1]; INT 100,6.60
same,Glucose,"[2]; 30 μM, D4",3.27 mmol/L
same,LDH,"[2]; 30 μM, D4",7.44 LDH IU/10^11 platelets
same,Lactate,"[2]; 30 μM, D4",7.1 mmol/L
same,Platelet counts,"[2]; 30 μM, D4",1385 x10^3 cells/μL
same,Platelet lysis,"[2]; 30 μM, D4",2.86%
same,pCO2 at 37° C.,"[2]; 30 μM, D4",26.7 mm Hg
same,pH at 22° C.,"[2]; 30 μM, D4",7.11
same,pH at 37° C.,"[2]; 30 μM, D4",6.88
same,pO2 at 37° C.,"[2]; 30 μM, D4",28.9 mm Hg
same,Glucose,"[2]; 30 μM, D7",0.16 mmol/L
same,LDH,"[2]; 30 μM, D7",8.26 LDH IU/10^11 platelets
same,Lactate,"[2]; 30 μM, D7",15.38 mmol/L
same,Platelet counts,"[2]; 30 μM, D7",1392 x10^3 cells/μL
same,Platelet lysis,"[2]; 30 μM, D7",3.17%
same,pCO2 at 37° C.,"[2]; 30 μM, D7",23.6 mm Hg
same,pH at 22° C.,"[2]; 30 μM, D7",7.08
same,pH at 37° C.,"[2]; 30 μM, D7",6.86
same,pO2 at 37° C.,"[2]; 30 μM, D7",57.3 mm Hg
same,Glucose,"[2]; 30 μM, Post-UV",5.45 mmol/L
same,LDH,"[2]; 30 μM, Post-UV",7.80 LDH IU/10^11 platelets
same,Lactate,"[2]; 30 μM, Post-UV",8.21 mmol/L
same,Platelet counts,"[2]; 30 μM, Post-UV",1308 x10^3 cells/μL
same,Platelet lysis,"[2]; 30 μM, Post-UV",2.85%
same,pCO2 at 37° C.,"[2]; 30 μM, Post-UV",34.9 mm Hg
same,pH at 22° C.,"[2]; 30 μM, Post-UV",7.07
same,pH at 37° C.,"[2]; 30 μM, Post-UV",6.84
same,pO2 at 37° C.,"[2]; 30 μM, Post-UV",11.6 mm Hg
same,Glucose,"[2]; 30 μM, Pre-UV",5.2 mmol/L
same,LDH,"[2]; 30 μM, Pre-UV",7.13 LDH IU/10^11 platelets
same,Lactate,"[2]; 30 μM, Pre-UV",8.6 mmol/L
same,Platelet counts,"[2]; 30 μM, Pre-UV",1346 x10^3 cells/μL
same,Platelet lysis,"[2]; 30 μM, Pre-UV",2.46%
same,pCO2 at 37° C.,"[2]; 30 μM, Pre-UV",35.0 mm Hg
same,pH at 22° C.,"[2]; 30 μM, Pre-UV",7.07
same,pH at 37° C.,"[2]; 30 μM, Pre-UV",6.85
same,pO2 at 37° C.,"[2]; 30 μM, Pre-UV",4.8 mm Hg
same,Glucose,"[2]; 60 μM, D4",2.92 mmol/L
same,LDH,"[2]; 60 μM, D4",8.12 LDH IU/10^11 platelets
same,Lactate,"[2]; 60 μM, D4",10.11 mmol/L
same,Platelet counts,"[2]; 60 μM, D4",1379 x10^3 cells/μL
same,Platelet lysis,"[2]; 60 μM, D4",3.10%
same,pCO2 at 37° C.,"[2]; 60 μM, D4",26.6 mm Hg
same,pH at 22° C.,"[2]; 60 μM, D4",7.11
same,pH at 37° C.,"[2]; 60 μM, D4",6.88
same,pO2 at 37° C.,"[2]; 60 μM, D4",28.8 mm Hg
same,Glucose,"[2]; 60 μM, D7",0 mmol/L
same,LDH,"[2]; 60 μM, D7",8.48 LDH IU/10^11 platelets
same,Lactate,"[2]; 60 μM, D7",15.16 mmol/L
same,Platelet counts,"[2]; 60 μM, D7",1403 x10^3 cells/μL
same,Platelet lysis,"[2]; 60 μM, D7",3.37%
same,pCO2 at 37° C.,"[2]; 60 μM, D7",23.1 mm Hg
same,pH at 22° C.,"[2]; 60 μM, D7",7.08
same,pH at 37° C.,"[2]; 60 μM, D7",6.86
same,pO2 at 37° C.,"[2]; 60 μM, D7",61.0 mm Hg
same,Glucose,"[2]; 60 μM, Post-UV",5.04 mmol/L
same,LDH,"[2]; 60 μM, Post-UV",7.53 LDH IU/10^11 platelets
same,Lactate,"[2]; 60 μM, Post-UV",6.93 mmol/L
same,Platelet counts,"[2]; 60 μM, Post-UV",1249 x10^3 cells/μL
same,Platelet lysis,"[2]; 60 μM, Post-UV",2.65%
same,pCO2 at 37° C.,"[2]; 60 μM, Post-UV",35.1 mm Hg
same,pH at 22° C.,"[2]; 60 μM, Post-UV",7.06
same,pH at 37° C.,"[2]; 60 μM, Post-UV",6.83
same,pO2 at 37° C.,"[2]; 60 μM, Post-UV",8.0 mm Hg
same,Glucose,"[2]; 60 μM, Pre-UV",5.16 mmol/L
same,LDH,"[2]; 60 μM, Pre-UV",7.66 LDH IU/10^11 platelets
same,Lactate,"[2]; 60 μM, Pre-UV",6.72 mmol/L
same,Platelet counts,"[2]; 60 μM, Pre-UV",1344 x10^3 cells/μL
same,Platelet lysis,"[2]; 60 μM, Pre-UV",2.68%
same,pCO2 at 37° C.,"[2]; 60 μM, Pre-UV",33.7 mm Hg
same,pH at 22° C.,"[2]; 60 μM, Pre-UV",7.08
same,pH at 37° C.,"[2]; 60 μM, Pre-UV",6.85
same,pO2 at 37° C.,"[2]; 60 μM, Pre-UV",29.4 mm Hg
same,Glucose,"[2]; 90 μM, D4",2.97 mmol/L
same,Lactate,"[2]; 90 μM, D4",9.83 mmol/L
same,Platelet counts,"[2]; 90 μM, D4",1373 x10^3 cells/μL
same,Platelet lysis,"[2]; 90 μM, D4",3.23%
same,pCO2 at 37° C.,"[2]; 90 μM, D4",26.9 mm Hg
same,pH at 22° C.,"[2]; 90 μM, D4",7.10
same,pH at 37° C.,"[2]; 90 μM, D4",6.87
same,pO2 at 37° C.,"[2]; 90 μM, D4",25.7 mm Hg
same,Glucose,"[2]; 90 μM, D7",0 mmol/L
same,LDH,"[2]; 90 μM, D7",8.67 LDH IU/10^11 platelets
same,Lactate,"[2]; 90 μM, D7",14.62 mmol/L
same,Platelet counts,"[2]; 90 μM, D7",1384 x10^3 cells/μL
same,Platelet lysis,"[2]; 90 μM, D7",3.53%
same,pCO2 at 37° C.,"[2]; 90 μM, D7",22.6 mm Hg
same,pH at 22° C.,"[2]; 90 μM, D7",7.10
same,pH at 37° C.,"[2]; 90 μM, D7",6.87
same,pO2 at 37° C.,"[2]; 90 μM, D7",61.8 mm Hg
same,Glucose,"[2]; 90 μM, Post-UV",4.95 mmol/L
same,Lactate,"[2]; 90 μM, Post-UV",7.11 mmol/L
same,Platelet counts,"[2]; 90 μM, Post-UV",1313 x10^3 cells/μL
same,Platelet lysis,"[2]; 90 μM, Post-UV",2.64%
same,pCO2 at 37° C.,"[2]; 90 μM, Post-UV",33.7 mm Hg
same,pH at 22° C.,"[2]; 90 μM, Post-UV",7.06
same,pH at 37° C.,"[2]; 90 μM, Post-UV",6.83
same,pO2 at 37° C.,"[2]; 90 μM, Post-UV",29.3 mm Hg
same,Glucose,"[2]; 90 μM, Pre-UV",4.9 mmol/L
same,Lactate,"[2]; 90 μM, Pre-UV",6.95 mmol/L
same,Platelet counts,"[2]; 90 μM, Pre-UV",1344 x10^3 cells/μL
same,Platelet lysis,"[2]; 90 μM, Pre-UV",2.76%
same,pCO2 at 37° C.,"[2]; 90 μM, Pre-UV",34.9 mm Hg
same,pH at 22° C.,"[2]; 90 μM, Pre-UV",7.06
same,pH at 37° C.,"[2]; 90 μM, Pre-UV",6.84
same,pO2 at 37° C.,"[2]; 90 μM, Pre-UV",9.0 mm Hg
same,Platelet counts,"[2]; 110 μM, D4",0 x10^3 cells/μL
same,Platelet counts,"[2]; 110 μM, D7",0 x10^3 cells/μL
same,Glucose,"[2]; 110 μM, Post-UV",4.88 mmol/L
same,LDH,"[2]; 110 μM, Post-UV",6.97 LDH IU/10^11 platelets
same,Lactate,"[2]; 110 μM, Post-UV",7.18 mmol/L
same,Platelet counts,"[2]; 110 μM, Post-UV",1335 x10^3 cells/μL
same,Platelet lysis,"[2]; 110 μM, Post-UV",2.72%
same,pCO2 at 37° C.,"[2]; 110 μM, Post-UV",34.2 mm Hg
same,pH at 22° C.,"[2]; 110 μM, Post-UV",7.05
same,pH at 37° C.,"[2]; 110 μM, Post-UV",6.83
same,pO2 at 37° C.,"[2]; 110 μM, Post-UV",16.1 mm Hg
same,Glucose,"[2]; 110 μM, Pre-UV",4.95 mmol/L
same,LDH,"[2]; 110 μM, Pre-UV",7.42 LDH IU/10^11 platelets
same,Lactate,"[2]; 110 μM, Pre-UV",6.85 mmol/L
same,Platelet counts,"[2]; 110 μM, Pre-UV",1308 x10^3 cells/μL
same,Platelet lysis,"[2]; 110 μM, Pre-UV",2.65%
same,pCO2 at 37° C.,"[2]; 110 μM, Pre-UV",33.7 mm Hg
same,pH at 22° C.,"[2]; 110 μM, Pre-UV",7.07
same,pH at 37° C.,"[2]; 110 μM, Pre-UV",6.84
same,pO2 at 37° C.,"[2]; 110 μM, Pre-UV",6.3 mm Hg

# From patent US12214092B2, “Systems and methods for treating biological fluids” (Cerus Corporation, priority 2017, dated 2025)
